Source: US20120095325A1, “TREATMENT OF BRAIN DISEASES VIA ULTRASOUND/MAGNETIC TARGETING DELIVERY AND TRACING OF THERAPEUTIC AGENTS” (Chang Gung Medical Foundation, Linkou Branch, priority 2010, published 2012)
In brackets after ≈: the same amount, converted by molar mass.

What was measured:
in vivo = conditions: Sprague-Dawley, rat
Protocol: All animal experiments were approved by the Institutional Animal Care and Use Committee of Chang Gung University and adhered to their experimental animal care guidelines. […] Brain tumors were induced in another 14 rats by injection of cultured C6 tumor cells. Briefly, C6 tumor cells (10^6 cells/plate) were injected into the brains using a microdialysis pump system (CMA Microdialysis). Animals underwent FUS treatment on Day 10 after tumor implantation to determine if the method could open an area of the BBB sufficiently large to cover the area of the induced tumors.
Before the FUS treatment, the rats were anesthetized by i.p. injection of chlorohydrate (30 mg/kg). The top of the cranium of each rat was shaved with clippers, and a PE-50 catheter was inserted into the jugular vein. The animal's head was attached tightly to a 4-cm^2 thin-film window directly under an acrylic water tank. The animal's cranial opening was filled with degassed water to serve as an acoustic coupling device. SonoVue® SF6-coated US microbubbles (mean diameter 2-5 μm, 2.5 μg/kg; Bracco) were administered i.v. before sonication (with a time lapse<10 s). Each bolus injection contained 0.1 mL of microbubble/kg of body weight mixed with 0.2 mL of saline solution. A heparin flush (0.2 mL) was subsequently performed.
Animal experiments were monitored using the 3-T magnetic resonance imager to localize the geometric center of the FUS and the energy exposure site. US was delivered to the brain transcranially using a MR-compatible spherical transducer (diameter, 60 mm; radius of curvature, 80 mm; frequency, 400 kHz, electric-to-acoustic efficiency, 70%; Imasonics) with the center of the focal zone positioned at a penetration depth of 2 to 3 mm in each hemisphere. Single burst-mode US was delivered, with a burst length of 10 ms, a pulse-repetition frequency of 1 Hz, and total sonication duration of 120 s. For optimization studies, the input electric power used was 2 W, corresponding to an acoustic negative peak (i/e., spatial-peak, temporal-peak) pressure amplitude measured through the animal cranium equal to 0.62 MPa.
In the MT treatment, a permanent magnet having a peak magnetic flux density of 0.18 T, 0.4 T or 0.55 T was used to produce an inhomogeneous magnetic field. To concentrate the magnetic flux density onto the disrupted region of the BBB, the magnet was tilted at an angle relative to the animal's brain, attached to the animal's scalp, and supported and tightened using a custom-made plastic belt for the desired duration (3-24 hrs). MRI images were acquired immediately after removal of the magnet.
Animals' brains were monitored by MRI after the FUS treatment and/or the MT treatment. All MRI images were acquired on a 3-T scanner using the standard wrist coil with an inner diameter of 13 cm. The animals were anesthetized with 2% isoflurane throughout the MRI imaging process, placed in an acrylic holder, and positioned in the center of the magnet. An i.v. bolus (0.1 mmol/kg) of gadopentetate dimeglumine MRI contrast agent (Magnevist; Berlex) was administered before scanning. To identify the region of the BBB disrupted by the FUS treatment, contrast-enhanced T1 turbo spin-echo sequences were acquired using the following parameters: repetition/echo time, 780 ms/15 ms; slice thickness, 1.4 mm; matrix size, 128×256; field of view, 39×60 mm (resolution, 0.3×0.3 mm). T2-weighted images were obtained to produce R2 maps both in gel phantom or in vivo experiments by using a double-TE spinecho sequence and acquired three times, using the following parameters: repetition time, 3,860 ms, echo time, 8/14, 28/57, and 85/228 ms; matrix, 128×256; field of view, 38×76 mm (resolution, 0.3×0.3 mm); and slice thickness, 1.4 mm.

Rat glioma C6 cells = assay: Cell toxicity in vitro, XTT assay; format: cell-based; conditions: 12 hrs, no magnetic field
Protocol: Rat glioma C6 cells were cultured in the culture medium RPMI 1640 supplemented with 2.2 mg/mL sodium carbonate, 10% FBS, 50 μg/mL gentamycin, 50 μg/mL penicillin and 50 μg/mL streptomycin at 37° C. and 5% CO2. Approximately 10,000 cells were placed in each well of a 96-well culture plate and incubated in a humidified chamber at 37° C. and 5% CO2 for 24 hrs.
Before counting viable cells by the XTT assay, the culture medium in each well was removed and cells were incubated in 120 μL of XTT for 3 hrs. After the reaction, a 100 μL aliquot of the solution in each well was sampled and transferred to a 96-well counting dish, followed by measuring absorbance at OD490 using an ELISA reader, so as to determine cell viability (%). The experimental results were expressed as mean±SD. The in vitro cytotoxicities of MNPs, epirubicin and epirubicin-MNPs on C6 cells were evaluated by the IC50 values thereof.

[1] = cited from earlier work
breast carcinoma = conditions: cited from earlier work

Compound	concentration at 6 hr (in vivo) [ng/g]	epirubicin accumulated in tissue (in vivo)	epirubicin concentration measured in tissues per iron (range) (in vivo)	epirubicin delivered, assessed by ICP-OES/HPLC (in vivo)	epirubicin delivered, assessed by MRI (in vivo)	mean immobilization ratio in tissues (in vivo) [μg epirubicin/mg iron ion]	IC50 (Rat glioma C6 cells) [µg/mL]	doxorubicin delivered into normal brains by FUS ([1]; FUS treatment used safely)	doxorubicin delivery by FUS ([1]; increased delivery, at the expense of increased damage to brain tissue)	therapeutic range reported in vivo (breast carcinoma; human, in vivo) [ng/g tumor]	clinical response rate (breast carcinoma; patients with breast carcinoma) [%]
COc1cccc2c1C(=O)c1c(O)c3c(c(O)c1C2=O)C[C@@](O)(C(=O)CO)C[C@@H]3O[C@H]1C[C@H](N)[C@@H](O)[C@H](C)O1 [epirubicin]	21700	1,336±1,182 ng epirubicin per gram of tissue	383-415 μg epirubicin/mg iron ion	1,162±1,028 ng/g	1,197±226 ng/g	395.6±17.3	6.7 (≈ 12.3 µM)				
COc1cccc2c1C(=O)c1c(O)c3c(c(O)c1C2=O)C[C@@](O)(C(=O)CO)C[C@@H]3O[C@H]1C[C@H](N)[C@H](O)[C@H](C)O1 [doxorubicin]								886±327 ng doxorubicin per gram of tissue	5,336±659 ng/g	819±482	39
